Laboratory results published in PubChem BioAssay (NCI).
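Cells were grown in 96-well plates and exposed to each compound for 48 hours at five concentrations; endpoints were interpolated linearly between bracketing concentrations, or set to the highest concentration if not reached. Definition used: TGI = concentration required for complete inhibition of growth.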

How the values were obtained:
Assay in all cases: NCI-60 cell line screen, 48 h
A498 renal = system: A498 renal
A549 NSCLC = system: A549 NSCLC
ACHN renal = system: ACHN renal
BT-549 breast = system: BT-549 breast
COLO 205 colon = system: COLO 205 colon
DU-145 prostate = system: DU-145 prostate
EKVX NSCLC = system: EKVX NSCLC
HCC-2998 colon = system: HCC-2998 colon
HCT-116 colon = system: HCT-116 colon
HCT-15 colon = system: HCT-15 colon
HL-60(TB) leukemia = system: HL-60(TB) leukemia
HOP-62 NSCLC = system: HOP-62 NSCLC
HOP-92 NSCLC = system: HOP-92 NSCLC
HT29 colon = system: HT29 colon
IGROV1 ovarian = system: IGROV1 ovarian
K-562 leukemia = system: K-562 leukemia
KM12 colon = system: KM12 colon
LOX IMVI melanoma = system: LOX IMVI melanoma
M14 melanoma = system: M14 melanoma
MALME-3M melanoma = system: MALME-3M melanoma
MCF7 breast = system: MCF7 breast
MDA-MB-231 breast = system: MDA-MB-231 breast
MDA-MB-435 = system: MDA-MB-435
MDA-N = system: MDA-N
MOLT-4 leukemia = system: MOLT-4 leukemia
NCI-H226 lung = system: NCI-H226 lung
NCI-H23 lung = system: NCI-H23 lung
NCI-H460 lung = system: NCI-H460 lung
NCI/ADR-RES ovarian = system: NCI/ADR-RES ovarian
OVCAR-3 ovarian = system: OVCAR-3 ovarian
OVCAR-4 ovarian = system: OVCAR-4 ovarian
OVCAR-5 ovarian = system: OVCAR-5 ovarian
PC-3 prostate = system: PC-3 prostate
RPMI-8226 leukemia = system: RPMI-8226 leukemia
RXF 393 renal = system: RXF 393 renal
SF-268 CNS = system: SF-268 CNS
SF-539 CNS = system: SF-539 CNS
SK-MEL-2 melanoma = system: SK-MEL-2 melanoma
SK-MEL-28 melanoma = system: SK-MEL-28 melanoma
SK-MEL-5 melanoma = system: SK-MEL-5 melanoma
SK-OV-3 ovarian = system: SK-OV-3 ovarian
SN12C renal = system: SN12C renal
SNB-19 CNS = system: SNB-19 CNS
SR leukemia = system: SR leukemia
SW-620 colon = system: SW-620 colon
TK-10 renal = system: TK-10 renal
U251 CNS = system: U251 CNS
UACC-257 melanoma = system: UACC-257 melanoma
UACC-62 melanoma = system: UACC-62 melanoma
UO-31 renal = system: UO-31 renal
786-0 renal = system: 786-0 renal
CAKI-1 renal = system: CAKI-1 renal
HS 578T breast = system: HS 578T breast
NCI-H522 lung = system: NCI-H522 lung
OVCAR-8 ovarian = system: OVCAR-8 ovarian
SF-295 CNS = system: SF-295 CNS
SNB-75 CNS = system: SNB-75 CNS
T-47D breast = system: T-47D breast

`O=C1c2ccccc2OCC12OC21C=CC(Cl)=CC1` (configuration not stated) showed a TGI (A498 renal) of 55 µM, a TGI (A549 NSCLC) of 56.6 µM and a TGI (ACHN renal) of over 100 µM. It also gave a TGI (BT-549 breast) of 83.7 µM, a TGI (COLO 205 colon) of 33.4 µM and a TGI (DU-145 prostate) of 38.6 µM. The TGI (EKVX NSCLC) was 51.8 µM, the TGI (HCC-2998 colon) was 42.2 µM and the TGI (HCT-116 colon) was 43.6 µM. For the same compound, the TGI (HCT-15 colon) was 86.5 µM, the TGI (HL-60(TB) leukemia) was 37.3 µM and the TGI (HOP-62 NSCLC) was 92.1 µM. The TGI (HOP-92 NSCLC) was over 100 µM, the TGI (HT29 colon) was 36.5 µM and the TGI (IGROV1 ovarian) was over 100 µM. It also gave a TGI (K-562 leukemia) of over 100 µM, a TGI (KM12 colon) of 41.9 µM and a TGI (LOX IMVI melanoma) of 30.4 µM. For the same compound, the TGI (M14 melanoma) was over 100 µM, the TGI (MALME-3M melanoma) was 44.8 µM and the TGI (MCF7 breast) was over 100 µM. For the same compound, the TGI (MDA-MB-231 breast) was 50.9 µM, the TGI (MDA-MB-435) was 51.5 µM and the TGI (MDA-N) was 43.8 µM. For the same compound, the TGI (MOLT-4 leukemia) was 23.5 µM, the TGI (NCI-H226 lung) was over 100 µM and the TGI (NCI-H23 lung) was 37.9 µM. It also gave a TGI (NCI-H460 lung) of 47.9 µM, a TGI (NCI/ADR-RES ovarian) of 50.1 µM and a TGI (OVCAR-3 ovarian) of 42.1 µM. It also gave a TGI (OVCAR-4 ovarian) of 46.4 µM, a TGI (OVCAR-5 ovarian) of 81.3 µM and a TGI (PC-3 prostate) of over 100 µM. The TGI (RPMI-8226 leukemia) was 47.4 µM, the TGI (RXF 393 renal) was 46.8 µM and the TGI (SF-268 CNS) was over 100 µM. It also gave a TGI (SF-539 CNS) of over 100 µM, a TGI (SK-MEL-2 melanoma) of 59.1 µM and a TGI (SK-MEL-28 melanoma) of 67.4 µM. For the same compound, the TGI (SK-MEL-5 melanoma) was 28.3 µM, the TGI (SK-OV-3 ovarian) was over 100 µM and the TGI (SN12C renal) was 35.3 µM. It also gave a TGI (SNB-19 CNS) of 80.3 µM, a TGI (SR leukemia) of 17.5 µM and a TGI (SW-620 colon) of over 100 µM. It also gave a TGI (TK-10 renal) of over 100 µM, a TGI (U251 CNS) of 44.4 µM and a TGI (UACC-257 melanoma) of over 100 µM. It also gave a TGI (UACC-62 melanoma) of over 100 µM and a TGI (UO-31 renal) of 65.1 µM.
For `CC1(C)OP(=O)(O)C=C1Sc1ccc([N+](=O)[O-])cc1[N+](=O)[O-]`, the TGI (786-0 renal) was over 100 µM, the TGI (A498 renal) was over 100 µM and the TGI (A549 NSCLC) was over 100 µM. It also gave a TGI (ACHN renal) of over 100 µM, a TGI (CAKI-1 renal) of over 100 µM and a TGI (COLO 205 colon) of over 100 µM. It also gave a TGI (DU-145 prostate) of over 100 µM, a TGI (EKVX NSCLC) of over 100 µM and a TGI (HCC-2998 colon) of over 100 µM. It also gave a TGI (HCT-116 colon) of over 100 µM, a TGI (HCT-15 colon) of over 100 µM and a TGI (HL-60(TB) leukemia) of over 100 µM. The TGI (HOP-62 NSCLC) was over 100 µM, the TGI (HOP-92 NSCLC) was over 100 µM and the TGI (HS 578T breast) was over 100 µM. For the same compound, the TGI (HT29 colon) was over 100 µM, the TGI (IGROV1 ovarian) was over 100 µM and the TGI (K-562 leukemia) was over 100 µM. For the same compound, the TGI (KM12 colon) was over 100 µM, the TGI (LOX IMVI melanoma) was over 100 µM and the TGI (M14 melanoma) was over 100 µM. For the same compound, the TGI (MALME-3M melanoma) was over 100 µM, the TGI (MCF7 breast) was over 100 µM and the TGI (MDA-MB-435) was over 100 µM. It also gave a TGI (MDA-N) of over 100 µM, a TGI (NCI-H226 lung) of over 100 µM and a TGI (NCI-H23 lung) of over 100 µM. For the same compound, the TGI (NCI-H460 lung) was over 100 µM, the TGI (NCI-H522 lung) was over 100 µM and the TGI (NCI/ADR-RES ovarian) was over 100 µM. The TGI (OVCAR-3 ovarian) was over 100 µM, the TGI (OVCAR-4 ovarian) was over 100 µM and the TGI (OVCAR-5 ovarian) was over 100 µM. For the same compound, the TGI (OVCAR-8 ovarian) was over 100 µM, the TGI (PC-3 prostate) was over 100 µM and the TGI (SF-268 CNS) was over 100 µM. For the same compound, the TGI (SF-295 CNS) was over 100 µM, the TGI (SF-539 CNS) was over 100 µM and the TGI (SK-MEL-2 melanoma) was over 100 µM. The TGI (SK-MEL-28 melanoma) was over 100 µM, the TGI (SK-MEL-5 melanoma) was over 100 µM and the TGI (SK-OV-3 ovarian) was over 100 µM. For the same compound, the TGI (SN12C renal) was over 100 µM, the TGI (SNB-19 CNS) was over 100 µM and the TGI (SNB-75 CNS) was over 100 µM. It also gave a TGI (SR leukemia) of over 100 µM, a TGI (SW-620 colon) of over 100 µM and a TGI (T-47D breast) of over 100 µM. For the same compound, the TGI (TK-10 renal) was over 100 µM, the TGI (U251 CNS) was over 100 µM and the TGI (UACC-257 melanoma) was over 100 µM. It also gave a TGI (UACC-62 melanoma) of over 100 µM.
